Patent US20230346831A1, “METHODS FOR TREATING […] USING LOW DOSE CARBON MONOXIDE” (priority 2020, published 2023)
“And” between values parts separate entries of the source, which are not always exact repeats. Equal values may be shown once.

Test system: MCF7/TGL cells
Experiment: metabolomic assay (polar metabolite profiling, mass spectrometry)
Assay type: cell-based, human
Conditions: MCF7/TGL cells treated with CO, replicates CO 1-3
Protocol: Extraction and analysis were performed with the same parameters as the method disclosed in FIG. 7.
7 × 10^6 cells were seeded in 10-cm cell culture plates with DMEM containing 10% FBS, 0.2 mM L-glutamine and 1% penicillin/streptomycin. Additionally, MCF7/TGL/pQ was cultured in media containing 0.5 µgml^-1 puromycin and 25 mM HEPES. After 16 hours of incubation, metabolites were extracted from the cells using 80% methanol. The remaining steps were carried out by Weill Cornell Medicine Proteomics and Metabolomics Core Facility according to M. D. Goncalves et al., Proc Natl Acad Sci USA 115, E743-E752 (2018). All data analyses were done using MetaboAnalyst 4.0 (www.metaboanalyst.ca/).
To investigate whether 250 ppm CO mimics hypoxia, the HiF1α protein levels were examined in CO treated MCF7/TGL and MDA-MB-231/TGL cells. […] To determine whether 250 ppm CO affects metabolism, polar metabolites were profiled using two breast cancer cell lines, MCF7/TGL and MDA-MB-231/TGL (FIGS. 7-9).

[C-]#[O+] [CO, Carbon monoxide]
Peak Height 2-Ketobutyric acid (HMDB00005): 4,031,318 and 4,391,029 and 5,247,754 | Peak Height Deoxyuridine (HMDB00012): 4,052 and 3,614 and 4,205 | Peak Height Carnosine (HMDB00033): 2,611,797 and 2,457,728 and 2,635,558 | Peak Height Adenine (HMDB00034): 319,396 and 405,129 and 608,706 | Peak Height Dihydrobiopterin (HMDB00038): 37,904,750 and 45,778,470 and 54,551,140 | Peak Height Betaine (HMDB00043): 211,641,600 and 205,281,000 and 256,902,700 | Peak Height Ascorbic acid (HMDB00044): 1,179,857 and 2,029,092 and 5,154,497 | Peak Height Adenosine monophosphate (HMDB00045): 595,508 and 473,948 and 497,428 | Peak Height Adenosine (HMDB00050): 14,622 and 14,037 and 23,296 | Peak Height Argininosuccinic acid (HMDB00052): 180,070 and 286,271 and 472,100 | Peak Height L-Carnitine (HMDB00062): 275,929,100 and 289,061,800 and 291,180,600 | Peak Height Creatine (HMDB00064): 394,311,900 and 394,104,400 and 478,205,800 | Peak Height cis-Aconitic acid (HMDB00072): 11,654,680 and 13,826,410 and 17,813,720 | Peak Height Cytidine triphosphate (HMDB00082): 248,084 and 155,802 and 221,285 | Peak Height Glycerophosphocholine (HMDB00086): 299,915,900 and 348,438,900 and 459,259,100 | Peak Height Cytidine (HMDB00089): 104,165 and 69,105 and 173,745 | Peak Height Dimethylglycine (HMDB00092): 6,279,555 and 7,567,884 and 7,137,536 | Peak Height Citric acid (HMDB00094): 83,266,830 and 83,863,100 and 100,258,700 | Peak Height Cytidine monophosphate (HMDB00095): 93,671 and 115,860 and 141,423 | Peak Height Choline (HMDB00097): 183,705,300 and 191,547,400 and 211,305,800 | Peak Height L-Cystathionine (HMDB00099): 13,082,840 and 16,491,010 and 22,978,520 | Peak Height D-Glucose (HMDB00122): 24,253,400 and 27,009,740 and 49,287,950 | Peak Height Glycine (HMDB00123): 97,069,490 and 60,912,580 and 81,769,040 | Peak Height Fructose 6-phosphate (HMDB00124): 689,466 and 869,013 and 1,084,547 | Peak Height Glutathione (HMDB00125): 166,253,500 and 185,818,800 and 224,175,500 | Peak Height Glycerol3-phosphate (HMDB00126): 242,288 and 358,077 and 520,107 | Peak Height D-Glucuronic acid (HMDB00127): 193,639 and 229,627 and 245,391 | Peak Height Fumaric acid (HMDB00134): 5,149,166 and 6,086,688 and 8,204,115 | Peak Height L-Glutamic acid (HMDB00148): 344,240,500 and 392,276,300 and 563,702,200 | Peak Height Hypoxanthine (HMDB00157): 207,108 and 78,064 and 86,812 | Peak Height L-Tyrosine (HMDB00158): 58,933,980 and 62,662,290 and 101,701,400 | Peak Height L-Phenylalanine (HMDB00159): 287,943,500 and 304,931,600 and 425,257,300 | Peak Height L-Alanine (HMDB00161): 24,164,680 and 26,271,210 and 37,606,940 | Peak Height L-Proline (HMDB00162): 456,504,200 and 470,321,900 and 561,265,500 | Peak Height L-Threonine (HMDB00167): 103,403,600 and 114,367,100 and 144,573,600 | Peak Height L-Asparagine (HMDB00168): 42,196,450 and 47,225,620 and 55,751,170 | Peak Height L-Isoleucine (HMDB00172): 339,480,000 and 333,493,200 and 481,854,600 | Peak Height Inosinic acid (HMDB00175): 22,764 and 28,902 and 46,283 | Peak Height L-Histidine (HMDB00177): 295,632,700 and 322,360,800 and 456,145,200 | Peak Height L-Lysine (HMDB00182): 41,138,540 and 40,717,620 and 74,426,720 | Peak Height Alpha-Lactose (HMDB00186): 261,525 and 290,474 and 303,327 | Peak Height L-Serine (HMDB00187): 22,682,210 and 24,881,370 and 27,375,240 | Peak Height L-Lactic acid (HMDB00190): 135,248,600 and 168,348,200 and 288,458,500 | Peak Height L-Aspartic acid (HMDB00191): 12,945,220 and 18,829,880 and 30,552,150 | Peak Height L-Acetylcarnitine (HMDB00201): 191,662,400 and 208,376,400 and 217,883,700 | Peak Height N6-Acetyl-L-lysine (HMDB00206): 126,221 and 143,548 and 210,190 | Peak Height Oxoglutaric acid (HMDB00208): 24,674,800 and 27,743,170 and 32,411,680 | Peak Height Pantothenic acid (HMDB00210): 49,604,040 and 57,015,540 and 93,443,310 | Peak Height Myoinositol (HMDB00211): 1,493,285 and 1,572,114 and 2,893,583 | Peak Height Ornithine (HMDB00214): 3,323,027 and 3,678,113 and 4,669,739 | Peak Height NADP (HMDB00217): 35,994 and 44,669 and 56,121 | Peak Height Orotic acid (HMDB00226): 107,743 and 166,715 | Peak Height Thiamine (HMDB00235): 13,320,550 and 15,145,370 and 21,979,980 | Peak Height Pyruvic acid (HMDB00243): 6,830,386 and 7,616,124 and 9,628,515 | Peak Height Riboflavin (HMDB00244): 8,515 and 36,944 | Peak Height Taurine (HMDB00251): 213,761,300 and 213,696,600 and 188,154,600 | Peak Height Succinic acid (HMDB00254): 3,099,054 and 3,989,967 and 6,160,312 | Peak Height Thymine (HMDB00262): 7,867,191 and 9,149,847 and 12,133,270 | Peak Height Phosphoenolpyruvic acid (HMDB00263): 3,181,575 and 5,081,852 and 6,959,276 | Peak Height Pyroglutamic acid (HMDB00267): 70,921,790 and 82,143,660 and 125,886,000 | Peak Height Thymidine (HMDB00273): 18,849 and 10,836 and 11,271 | Peak Height Uridine triphosphate (HMDB00285): 972,321 and 740,370 and 1,159,635 | Peak Height Uridine diphosphate glucose (HMDB00286): 3,510,195 and 3,063,631 and 4,862,560 | Peak Height Uridine 5′-monophosphate (HMDB00288): 35,559 and 34,351 and 45,597 | Peak Height Uric acid (HMDB00289): 2,364,329 and 2,512,157 and 4,422,182 | Peak Height Uridine diphosphate-N-acetylglucosamine (HMDB00290): 38,715,250 and 42,157,110 and 45,820,290 | Peak Height Xanthine (HMDB00292): 3,106,304 and 2,715,740 and 5,495,149 | Peak Height Uridine 5′-diphosphate (HMDB00295): 297,075 and 234,752 and 314,015 | Peak Height Uridine (HMDB00296): 51,402 and 29,724 and 61,581 | Peak Height Uracil (HMDB00300): 621,176 and 684,209 and 956,261 | Peak Height Urocanicacid (HMDB00301): 330,874 and 577,556 and 198,149 | Peak Height 3-Hydroxymethylglutaric acid (HMDB00355): 5,766,106 and 4,010,368 and 3,996,699 | Peak Height Allantoin (HMDB00462): 1,483,552 and 1,936,773 and 3,316,178 | Peak Height Caprylic acid (HMDB00482): 3,978,947 and 2,718,335 and 2,586,172 | Peak Height Aminoadipic acid (HMDB00510): 5,713,433 and 5,346,300 and 7,560,774 | Peak Height L-Arginine (HMDB00517): 64,328,130 and 65,745,300 and 95,595,630 | Peak Height Adenosine triphosphate (HMDB00538): 1,853,382 and 1,283,500 and 2,002,755 | Peak Height Creatinine (HMDB00562): 20,992,210 and 21,746,470 and 37,545,350 | Peak Height Galactonic acid (HMDB00565): 8,090,935 and 11,406,370 and 14,258,950 | Peak Height D-Arabitol (HMDB00568): 250,315 and 263,626 and 418,856 | Peak Height D-2-Hydroxyglutaric acid (HMDB00606): 460,608 and 570,887 and 905,587 | Peak Height Gluconic acid (HMDB00625): 6,277,480 and 8,930,573 and 14,396,540
